Measured values as given in patent US20120115742A1, “METHODS FOR IDENTIFICATION” (Cambridge Enterprise Limited, priority 2009, published 2012).
Read-outs that look alike come from different tables or passages of the source. Values belong to the compound of their own block, whether it stands above or below them.

Columns and labels:
THP-1 cells = assay: MCP-1 induced THP-1 cell migration (Transwell/ChemoTx); settings: for “Classical”:“BSCI” potency ratio, Human: THP-1 migration ED50 versus Panc-2H4 insulin ED50; for RATIO: Table 4, migration ED50 versus insulin ED50
Protocol: Leukocyte migration was measured using the 96-well format micro Transwell® assay system from Neuroprobe (Gaithersburg, Md., USA). In principle, this assay consists of two chambers separated by a porous membrane. The chemoattractant is placed in the lower compartment and the cells are placed in the upper compartment.
First, the cell suspension to be placed in the upper compartment was prepared. The THP-1 cells were pelleted by centrifugation (770×g; 4 mins) and washed with Geys Balanced Salt Solution with 1 mg/ml BSA (GBSS+BSA). This wash was then repeated, and the cells re-pelleted before being resuspended in a small volume of GBSS+BSA for counting, for example using a standard haemocytometer.
This ensured that there were 100,000 THP-1 cells in each 25 μl of the solution to be placed in the upper chamber of the plate.
To the third pot, GBSS+BSA plus vehicle as appropriate was added so that the volumes in three pots are equal, acting as a control.
Next, the chemoattractant solution to be placed in the lower compartment was prepared. […] This solution was divided into three pots, as for the cell suspension. To one pot, the BSCI was added to the same final concentration as was added to the cell suspension, in the second pot the BSCI and the sstr2 antagonist were both added at the same concentration as previously added to the cell suspension, while to the remaining pot GBSS+BSA plus vehicle as appropriate was added so that the volumes in the three pots were equal.
Once the chemoattractant solutions for the lower wells and cell solutions for the upper chambers were prepared, the migration chamber was assembled. 29 μl of the appropriate chemoattractant solution was placed into the lower well of the chamber. Assays were performed with at least triplicate determinations of each condition. Once all the lower chambers were filled, the porous membrane was applied to the chamber in accordance with the manufacturer's instructions. Finally, 25 μl of the appropriate cell solution was applied to each upper chamber. A plastic lid was placed over the entire apparatus to prevent evaporation.
The assembled chamber was incubated at 37° C., 5% CO2, for 2 hours.
At the end of the incubation, the liquid cell suspension was gently removed from the upper chamber, 20 μl of ice-cold 20 mM EDTA in PBS was added to the upper chamber, and the apparatus was incubated at 4° C. for 15 mins. This procedure caused any cells adhering to the underside of the membrane to fall into the lower chamber.
After this incubation the filter was carefully flushed with GBSS+BSA to wash off the EDTA, and then the filter was removed.
The number of cells migrated into the lower chamber under each condition can then be determined by a number of methods, including direct counting, labelling with fluorescent or radioactive markers or through the use of a vital dye. Typically, we utilised the vital dye MTT. 3 μl of stock MTT solution were added to each well, and then the plate was incubated at 37° C. for 1-2 hours during which time dehydrogenase enzymes within the cells converted the soluble MTT to an insoluble blue formazan product that could be quantified spectrophotometrically.
In parallel, an 8-point standard curve was set up. Starting with the number of cells added to each upper chamber (100,000) and going down in 2-fold serial dilutions in GBSS+BSA, the cells were added to a plate in 25 with 3 μl of MTT stock solution added. The standard curve plate was incubated along side the migration plate. At the end of this incubation, the liquid was carefully removed from the lower chambers, taking care not to disturb the precipitated formazan product.
The MCP-1 stimulated migration was determined by subtracting the average number of cells that reached the lower compartment in wells where no MCP-1 was added from the average number of cells that reached the lower compartment where MCP-1 was present at 25 ng/ml.

Panc-2H4 cells = assay: Human Panc-2H4 insulin suppression assay; assay type: cell-based; settings: for Human Panc-2H4 insulin suppression assay Max effect: suppression compared to vehicle
Excerpt: (§1) Two different assays for “classical” sstr2 functions were adopted: (1) cultured foetal rat pituitary cells secreted growth hormone which is inhibited by sstr2 agonists in a dose-dependent fashion and (2) selected glucose-sensitive sub-clones of the human Panc-1 cell line secrete insulin which is inhibited by sstr2 agonists in a dose-dependent fashion.
Glucose-sensitive sub-clones of the human Panc-1, a cell line derived from a pleiomorphic epithelioid carcinoma of the exocrine pancreas, were obtained essentially as described by Hamil et al. (2008) Biomed. Sci. Instrum. 44:441-6. Briefly, Panc-1 cells were subcultured in 24 well plates, and the medium was supplemented with an additional 5% glucose. […] The resulting sub-lines were then tested for glucose sensitivity by preparing wells of a 96-well plate (5×10^4 cells per well) which were then exposed to cultured medium containing a range of glucose concentrations (low glucose DMEM, DMEM, DMEM+1% glucose, DMEM+2.5% glucose and DMEM+5% glucose). After 24 hrs incubation, the conditioned medium was collected and assayed for insulin secretion by ELISA (Linco; cat# EZHI-14K) in accordance with the manufacturer's instructions. […] Further 96 well plates were prepared using Panc-2H4 (5×10^4 cells per well) in DMEM. After 24 hrs, the medium was switched to DMEM+5% glucose containing various test agents at various concentrations (triplicate wells per condition). After a further 24 hrs, the conditioned medium was harvested and the concentration of insulin was determined by ELISA as described above.
(§2) Results were reported as the mean SD, expressed as the fold change from cells in the presence of vehicle only.

fetal rat pituicytes = assay: Rat pituicyte GH suppression assay; assay type: cell-based; settings: Table 3; suppression compared to vehicle
Excerpt: as §1
Methods: Cultures of fetal rat pituicytes were established exactly as previously described (Murray et al. (2004) J. Clin. Endocrinol. Metab. 89:3027-32) by enzymatic dispersion. After 48 hrs in low glucose DMEM plus 10% FCS, cells in 48 well plates (5×10^4 cells per well) were washed for 4 hrs in serum-free DMEM and then incubated with test agents at various concentrations for a further 24 hrs in serum-free DMEM. At the end of this period, the conditioned medium was harvested, any cell debris removed by centrifugation and assayed for […] using a commercially available ELISA (Linco; cat# EZRMGH-45K) in accordance with the manufacturer's instructions.
as §2

[1] = test system: rat peripheral blood leukocytes; assay: Rat chemokine-induced PBMC migration assay; assay type: cell-based
Protocol: Similarly, where human Panc-2H4 cells are used to determine the effect of agents on classical sstr2 targets, the result is compared with the effect of the same agents on chemokine-induced migration of human THP-1 cells. […] For this reason, the ratio of “classical” to “BSCI” activity in Table 3 is calculated separately for rat and human.

sstr2 = target: T1, sstr2 (Homo sapiens, UniProt P30874); assay: [3H]-BN83250 equilibrium binding to THP-1 cells (Scatchard/competition)
T1 construct: with 1×10^6 THP-1 cells in Gey's Balanced Salt Solution, 10 nM [^3H]-BN83250; endogenous in cells; host or cells: THP-1 cells (intact cells, 4 °C)
T1 sequence (P30874 whole entry): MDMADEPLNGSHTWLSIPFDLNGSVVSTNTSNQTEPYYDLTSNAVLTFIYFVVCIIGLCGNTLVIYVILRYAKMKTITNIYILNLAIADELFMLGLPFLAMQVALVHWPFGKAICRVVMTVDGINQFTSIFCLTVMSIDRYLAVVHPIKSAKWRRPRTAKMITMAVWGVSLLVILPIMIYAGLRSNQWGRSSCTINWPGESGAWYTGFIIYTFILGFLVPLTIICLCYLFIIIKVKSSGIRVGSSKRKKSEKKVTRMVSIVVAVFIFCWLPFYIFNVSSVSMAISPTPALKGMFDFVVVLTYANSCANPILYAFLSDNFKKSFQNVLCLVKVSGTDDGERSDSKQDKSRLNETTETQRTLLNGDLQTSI
Protocol: Methods: [^3H]-BN83250 was synthesesized from (S,E)-3-(2′,2′-dimethyldodec-4′-enoylamino)-caprolactam by catalytic hydrogenation using tritium gas over a palladium catalyst (CRB Ltd, Cleveland, UK), yielding the tritiated product at a concentration of 270 μM in ethanol with a specific activity of 220Ci/mmol. The (S,E)-3-(2′,2′-dimethyldodec-4′-enoylamino)-caprolactam was prepared as follows: (S,S)-3-amino-caprolactam hydro-pyrrolidine-5-carboxylate (10 mmol) and Na2CO3 (30 mmol) in water (30 ml) were added to a solution of 2,2-dimethyl-dodec-4-enoyl chloride (10 mmol) in dichloromethane (30 ml) at ambient temperature and the reaction was stirred for 12 hours. The organic layer was then separated and the aqueous phase was extracted with additional dichloromethane (2×25 ml). The combined organic layers were dried over Na2CO3 and reduced in vacuo. The residue was purified by silica column chromatography (1:1 EtOAc:hexanes to EtOAc) to give (S,E)-3-(2′,2′-dimethyl-dodec-4′-enoyl)amino-caprolactam as a colourless oil (2.12 g, 63%). The radiolabelled compound was stored in the dark at 4° C. until required. Prior to use the specific activity was adjusted by addition of unlabelled BN83250.
For the analysis of binding, individual reactions were set up (in triplicate for each condition), with 1×10^6 THP-1 cells in Gey's Balanced Salt Solution, 10 nM [^3H]-BN83250 (at 50 Ci/mmol) and various concentrations of (S)-3(2′2′-dimethylpropionoylamino)-tetrahydropyridin-2-one (10 pM to 10 μM). Excess (100 μM) unlabelled BN83250 was used to determine the level of non-specific binding. After 2 hours at 4° C. (conditions previously shown to achieve equilibrium binding, and which prevent uptake of the radioligand that would result in an over-estimate of binding) excess label was washed away by centrifugation (3 washes with 5 ml of Gey's Balanced Salt Solution) and the bound radioactivity was determined by scintillation counting of the solubilised cell pellet.
Hits from this assay were confirmed using conventional Scatchard analysis, exactly as described in Example 4 above.

TNF-alpha = assay: Sub-lethal endotoxemia model, serum TNF-alpha after LPS; assay type: in vivo, mouse; settings: very high / highest doses, 2 hours post LPS
Protocol: We selected the sub-lethal endotoxemia model in mouse, because this has been well characterised in our laboratory (see for example Fox et al. (2002) J. Med. Chem. 45:360-70; Fox et al. (2005) J. Med. Chem. 48:867-74). The extent of systemic inflammation in response to a single intraperitoneal injection of bacterial lipopolysaccharide (LPS) can be estimated by measuring serum TNF-alpha 2 hours post challenge.
Methods: Mice (CD1 strain; adult males; 6 per group) were treated with BSCI (in an appropriate vehicle) or with vehicle alone by an appropriate route. […] Simultaneously, one set of mice at each BSCI concentration received BIM 23627 at 4 mg/animal (120 mg/kg) by sub-cutaneous injection (a treatment condition known to suppress classical sstr2-mediated signalling, such as GH release, in rats; Tulipano et al. (2002) 143:1218-24). Between 30 mins and 1 hour after dosing (a period when a maximal plasma concentration of BSCI has been achieved), the inflammatory challenge was elicited by intraperitoneal injection of 750 μg of LPS (Sigma; L4130 lot#024K4077; 900,000 EU/mg).
After a further 2 hours, the animals were sacrificed by CO2 asphyxiation, and blood was drawn by cardiac puncture. Serum was prepared by conventional methods, and the level of TNF-alpha in serum was measured using an ELISA (R&D Systems; Murine Quantikine code# MTA00) performed in accordance with the manufacturer's instructions.

[2] = target: type 2 somatostatin receptor (sstr2), human (human) (UniProt P30874); assay: cell-based or functional assay
Chain of type 2 somatostatin receptor (sstr2), human (human) (P30874 whole entry): as above

[3] = target: type 2 somatostatin receptor (sstr2), rat (rat) (UniProt P30680); assay: cell-based or functional assay
Chain of type 2 somatostatin receptor (sstr2), rat (rat) (P30680 whole entry): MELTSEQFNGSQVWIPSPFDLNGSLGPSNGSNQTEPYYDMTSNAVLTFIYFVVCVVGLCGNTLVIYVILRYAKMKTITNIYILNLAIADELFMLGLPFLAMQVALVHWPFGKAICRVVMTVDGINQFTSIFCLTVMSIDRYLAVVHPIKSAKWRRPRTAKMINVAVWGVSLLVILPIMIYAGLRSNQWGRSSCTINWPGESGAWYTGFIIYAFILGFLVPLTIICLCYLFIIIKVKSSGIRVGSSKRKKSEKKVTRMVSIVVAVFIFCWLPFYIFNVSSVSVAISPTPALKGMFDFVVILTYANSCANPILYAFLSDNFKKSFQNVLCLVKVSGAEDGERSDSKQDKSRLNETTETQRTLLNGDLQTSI

[4] = Table 4, 0.01-1,000 nM, 1% DMSO, read-out: Panc-2H4 insulin suppression assay (“classical” target) ED50

EC50 (Panc-2H4 cells; Table 3, read-out: Human Panc-2H4 insulin suppression assay ED50): > 1000 nM
Compound: O=C1NCCCC[C@@H]1NC(=O)C12CC3CC(CC(C3)C1)C2 [BN83470, (S)-3-(admantane-1′-carbonylamino)-caprolactam]
“Classical”:“BSCI” potency ratio, Human (THP-1 cells): <0.00008
Human chemokine-induced THP-1 migration assay Max effect (THP-1 cells; Table 3): 100%
Human Panc-2H4 insulin suppression assay Max effect (Panc-2H4 cells; Table 3): <10%
inhibition of insulin secretion by Panc-2H4 (Panc-2H4 cells; highest concentrations tested): None of these agents inhibited insulin secretion
Rat pituicyte GH suppression assay Max effect (fetal rat pituicytes): 56%
“Classical”:“BSCI” potency ratio, Rat ([1]; PBMC migration ED50 versus pituicyte GH ED50): 0.0008
Rat chemokine-induced PBMC migration assay Max effect ([1]; Table 3): 100%
competition with BN83250 binding to sstr2 (sstr2): compete with BN83250 binding to sstr2 to a similar extent

Compound: CC(c1c[nH]c2ccccc12)C(NC(=O)NC1CCCNC1=O)C(=O)NCC1CCCC(CN)C1 (stereo not shown) [Compound C]
RATIO (THP-1 cells): 0.02
Panc-2H4 insulin suppression assay Max Effect (Panc-2H4 cells; Table 4): 56%

Compound: C[C@@H]1C[C@H]2[C@@H]3CCC4=CC(=O)C=C[C@]4(C)[C@@]3(F)[C@@H](O)C[C@]2(C)[C@@]1(O)C(=O)CO [dexamethasone]
inhibition of serum TNF-alpha (TNF-alpha): more than 90%

EC50 (Panc-2H4 cells; [4]): > 1000 nM
Compound: CC(=O)NC(=O)C(NC(=O)N1CCC(n2c(=O)[nH]c3ccccc32)CC1)C(C)c1c[nH]c2ccccc12 (stereo not shown) [E]
Panc-2H4 insulin suppression assay Max Effect (Panc-2H4 cells; Table 4): <10%

Compound: CC1(C(=O)N[C@H]2CCCCNC2=O)CCCCC1 [(S)-3-(1′-methylcyclohexyl-1′-carbonylamino)-caprolactam]
competition with BN83250 binding to sstr2 (sstr2): compete with BN83250 binding to sstr2 to a similar extent

Human Panc-2H4 insulin suppression assay ED50 [2]: 0.14 nM
Human Panc-2H4 insulin suppression assay Max effect [2]: 51%
Human chemokine-induced THP-1 migration assay ED50 [2]: 0.9 nM
Human chemokine-induced THP-1 migration assay Max effect [2]: 38%
Rat chemokine-induced PBMC migration assay ED50 [3]: 1.2 nM
Rat chemokine-induced PBMC migration assay Max effect [3]: 44%
Rat pituicyte GH suppression assay ED50 [3]: 0.17 nM
Rat pituicyte GH suppression assay Max effect [3]: 73%
Compound: somatostatin-28 (from UniProt P61278 89-116) (peptide)

Compound: CC(C)(C)C(=O)N[C@H]1CCCNC1=O
Hill Slope (sstr2; competition with [3H]-BN83250): approximately −1.0

Human Panc-2H4 insulin suppression assay ED50 [2]: > 1000 nM
Human Panc-2H4 insulin suppression assay Max effect [2]: < 10%
Human chemokine-induced THP-1 migration assay ED50 [2]: 6.9 nM
Human chemokine-induced THP-1 migration assay Max effect [2]: 100%
Rat chemokine-induced PBMC migration assay ED50 [3]: 15 nM
Rat chemokine-induced PBMC migration assay Max effect [3]: 100%
Rat pituicyte GH suppression assay ED50 [3]: 550 nM
Rat pituicyte GH suppression assay Max effect [3]: 42%
Compound: BIM58187 (peptide)

Compound: C[C@@H](c1c[nH]c2ccccc12)[C@@H](NC(=O)N1CCC(n2c(=O)[nH]c3ccccc32)CC1)C(=O)NC[C@@H]1CCC[C@H](CN)C1 [L-779,976]
“Classical”:“BSCI” potency ratio, Human (THP-1 cells): 27
Human Panc-2H4 insulin suppression assay Max effect (Panc-2H4 cells; Table 3): 40%
Panc-2H4 insulin suppression assay Max Effect (Panc-2H4 cells; Table 4): 40%
Panc-2H4 insulin suppression assay Max Effect (Panc-2H4 cells; Table 5): 40%
Rat pituicyte GH suppression assay Max effect (fetal rat pituicytes): 55%

Compound: CC(c1c[nH]c2ccccc12)C(NC(=O)N1CC(=O)NC(=O)C1)C(=O)NCC1CCCC(CN)C1 (stereo not shown) [Compound B]
RATIO (THP-1 cells): 1.3
Panc-2H4 insulin suppression assay Max Effect (Panc-2H4 cells; Table 4): 52%

Compound: SST-28: alternatively processed sst28 natural ligand
Max effect (maximum inhibition) (THP-1 cells; Table 2, at the highest dose tested (1-10 μM)): 40-60%

EC50 (Panc-2H4 cells; [4]): > 1000 nM
Compound: NCC1CCCC(CNC(=O)C(Cc2ccccc2)NC(=O)N2CCC(n3c(=O)[nH]c4ccccc43)CC2)C1 (stereo not shown) [F]
Panc-2H4 insulin suppression assay Max Effect (Panc-2H4 cells; Table 4): <10%

Compound: CC(=O)NC(CC(N)=O)C(=O)NC(C(=O)NCC1CCCC(CN)C1)C(C)c1c[nH]c2ccccc12 (mixture of isomers) [D]
Panc-2H4 insulin suppression assay Max Effect (Panc-2H4 cells; Table 4): 37%
